Test results: patent publication US6962945B2, “N-aryloxypropanolyl-N′-phenethyl-urea” (Council of Scientific and Industrial Research, priority 2004, dated 2005)
“Also recorded” adds a separate entry of the source.

Tested on: adult male Sprague Dawley rats
Assay: appetite suppressant activity on scheduled fed rat model of appetite
Format: in vivo
Conditions: 20 μmol/kg, by oral route; for decrease in food intake as compared to food intake in the control group: fat rich diet 3 h daily, 30 min prior to food; for change in gross behaviour: observed during the period of feeding
Experimental: The pharmacological evaluation of the test compounds of general formula 3 was carried out by the following protocol.
The appetite suppressant activity of test compounds was tested on scheduled fed rat model of appetite. The study was conducted in adult male Sprague Dawley rats, weighing 175-200 g on arrival). The animals were housed in transparent cages of Bayer Makrolon type 3118 measuring 425×266×180 with floor area 800 cm^2. In each cage one rat was kept. A special fat rich diet (Diet #12451, Research Diets, NJ, USA) was provided only for 3 h (11 am-2 pm) daily [no diet in rest of the period]. Water was provided for 24 h. Diet was weighed prior to and after observation period by an electronic [Digital display] balance. Food intake was recorded by calculating the difference between prior and after weight of diet. Rats were weighed weekly after feeding. Rats were provided 16 g of diet daily and within 12-14 days animals achieved base line food intake (12-14 g) with gain in body weight (230-250 g) indicating adaptation to scheduled feeding. Only those rats that adapted to schedule feeding were used in the study. Rat showing significant less food intake and weight gain as compared to others was excluded from the study.
Thereafter, tests compounds dissolved in 10% DMSO aqueous solution and given in dose of 20 μmol/kg, by oral route. The test compounds were administered 30 min prior to food. Each test compounds were given in 5 rats. Diet and water was weighed at hourly interval in control and compound treated rats. During the period of feeding the gross behavior of rat was also observed.
The significance of difference between the food intake of treated and control groups was determined by unpaired Student's test [Two tailed p value].

With `CC(C)CC(N(C)C)C1(c2ccc(Cl)cc2)CCC1` (centres unmarked) [Sibutramine, reference compound] the “decrease in food intake as compared to food intake in the control group” value (shortened to “decrease in food intake”) was 38.57%.
In the case of `O=C(NCCc1ccccc1)NCC(O)COc1ccc(C(F)(F)F)cc1` (centres unmarked) [compound 3a, N-[2-hydroxy-3-(4-trifluoromethylphenoxy)propyl]-N′-2-phenethyl-urea], the “activity compared with Sibutramine” value is reported as “comparable; also recorded: same activity as Sibutramine”, the “change in water intake” value is reported as “did not cause any significant change” and the “change in gross behaviour” value is reported as “did not cause any significant change”. For the same molecule, the “decrease in food intake” value was 41.42%.
With `COc1ccc(OCC(O)CNC(=O)NCCc2ccccc2)cc1` (centres unmarked) [compound 3j, N-[2-hydroxy-3-(4-methoxyphenoxy)propyl]-N′-2-phenethyl-urea] the “change in water intake” value was “did not cause any significant change”, the “change in gross behaviour” value was “did not cause any significant change” and the “decrease in food intake” value was 31.82%.
With `OC(CNC(=S)NCCc1ccccc1)COc1ccc(C(F)(F)F)cc1` (centres unmarked) [compound 3n, N-[2-hydroxy-3-(4-trifluoromethylphenoxy)propyl]-N′-2-phenethyl-thiourea] the “change in water intake” value was “did not cause any significant change”, the “change in gross behaviour” value was “did not cause any significant change” and the “decrease in food intake” value was 28.4%.
